Measured values as given in patent EP3263567A1, “CARBOXAMIDE-SUBSTITUTED PYRAZOLES AND TRI(HETERO)ARYL-PYRAZOLES FOR USE IN METHODS OF TREATING AND / OR PREVENTING CARDIOVASCULAR DISEASES AND / OR COMORBIDITIES THEREOF” (AiCuris Anti-infective Cures GmbH, priority 2016, dated 2018).

Key:
[1] = system: Beagle dogs; test: 4-week beagle dog experiment, toxicity observations; type: in vivo
Method: [drawing 93] i.e. 4-[5-[3-Chloro-5-(trifluoromethoxy)phenyl]-1-(pyridin-3-yl)-1H-pyrazol-3-yl]-5,6-dihydro-7H-pyrrolo[3,4-d]pyrimidin-7-one, was administered in a 4-week beagle dog experiment with integrated non-invasive telemetric electrocardiography (ECG) measurements for determining its cardiovascular effects; specifically its effects on the heart rate.
32 Beagle dogs (16 males and 16 females) with parameters in the normal range were tested for cardiovascular effects of Compound A administration and divided into the study groups indicated below.
Duration of study: • 4 acclimatization weeks • 4 test weeks • 4 additional test weeks for the animals scheduled for the recovery period.
The test compound A-formulation of the appropriate concentration was administered by oral administration at a constant administration volume/kg b.w.
• Groups 1 and 4: Twice daily at an 8-hour interval for 28 consecutive days. • Groups 2 to 3: Once daily for 28 consecutive days.
The animals were observed individually before and after dosing at each time of dosing for any signs of behavioural changes, reaction to treatment or illness.
Kennel side observations included skin/fur, eyes, mucous membranes, respiratory and circulatory systems, somatomotor activity and behaviour patterns. The onset, intensity, and duration of any signs observed were recorded.

[2] = 10-day dose-range-finding study in dogs; type: in vivo
Method: For the dog study, single dose data are available at 3, 30 and 100 mg/kg and repeated dose data (10 days of treatment) are available at 30, 100 and 2 x 50 mg/kg. At a single dose of 30 mg/kg, no further increase in exposure or Cmax is apparent. In the 10-day DRF study (LPT Study No. 31586) it was investigated whether after multiple dosing any accumulation would be apparent and therefore dose levels of 30 and 100 mg/kg were selected in this study. In addition, the highest daily dose (i.e. 100 mg/kg) was also administered as 50 mg/kg twice daily (8-h interval) to investigate possible beneficial effects of BID dosing on overall exposure.

SMILES: O=C1NCc2c1ncnc2-c1cc(-c2cc(Cl)cc(OC(F)(F)F)c2)n(-c2cccnc2)n1 [Compound A, 4-[5-[3-Chloro-5-(trifluoromethoxy)phenyl]-1-(pyridin-3-yl)-1H-pyrazol-3-yl]-5,6-dihydro-7H-pyrrolo[3,4-d]pyrimidin-7-one]
- mortality ([1]; 3, 10 or 2 x 50 mg/kg b.w./day for 4 weeks, treatment and recovery period): None
- signs of systemic intolerance (behaviour, external appearance, faeces) ([1]; 3, 10 or 2 x 50 mg/kg b.w./day oral for 4 weeks and 4-week recovery): No compound A-related signs of systemic intolerance
- eyes and auditory acuity ([1]; 4 weeks): No changes or adverse effects
- haematology, clinical biochemistry, urinalysis, ophthamological and auditory examination, organ weights, bone marrow, histopathology ([1]; 4 weeks): No compound A-related influences
- macroscopic inspection at necropsy ([1]; 4 weeks): did not reveal any morphological changes
- histopathological examination ([1]; end of main study and of 4-week recovery period): did not reveal any Compound A-related morphological changes
- body weight and body weight gain; food and drinking water consumption ([1]; treatment period): No compound A-related influence
- exposure on split dosing ([2]; 100 mg/kg as 2 x 50 mg/kg 8 hours apart): small increase in exposure
- test item related findings ([2]; 30, 100 and 2 x 50 mg/kg, 10 days): No clear and consistent test item related findings
- exposure on dose increase ([2]; 30 to 100 mg/kg, 10 days): did not reveal a further increase in exposure
